For data set [1], the target named is T1, Human recombinant PDE2A (hPDE2A) (Homo sapiens, UniProt O00408).
T1 construct: made in house; host or cells: Sf9 insect cells (baculovirus)
Nature of the data set: In vitro assay PDE2A (SPA, 3H-cGMP). The data set is classed as biochemical. The following applies: for Emax: 10 μM cGMP substrate; for IC50: hPDE2A pIC50, 10 μM cGMP substrate. In outline:
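Sf9-expressed, Ni-sepharose-purified enzyme in 50 mM Tris pH 7.8, 8.3 mM MgCl2, 1.7 mM EGTA with 10 μM cGMP plus 0.01 μCi 3H-cGMP (final), 1% DMSO. Reaction 45 min at room temperature; SPA bead radioactivity counted as cpm, blanks without enzyme, controls with DMSO instead of compound.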

Data set [2] has as its system hPDE3B. Briefly: In vitro assay PDE3 (SPA, 3H-cAMP). The data set is classed as biochemical, human. The following applies: 0.4 μM cAMP substrate; for hPDE3B Emax: in % (unit assumed).
The target in data set [3] is hPDE10A2 (Homo sapiens, UniProt Q9Y233). Nature of the data set: biochemical. The following applies: 60 nM cAMP substrate; for IC50: human clone, read-out: hPDE10A2 or rPDE10A2 pIC50 (converted); for Emax: read-out: hPDE10A2 or rPDE10A2 Emax, human clone. In outline: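 His-purified rat or human PDE10A2 from baculovirus-infected Sf9 cells was incubated with compound in 50 mM Tris pH 7.8, 8.3 mM MgCl2, 1.7 mM EGTA plus 60 nM cAMP and […] 3H-cAMP, 60 min at room temperature. Product captured by SPA beads; IC50 fitted from % control (1% DMSO) minus enzyme-free blank.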
Sequence of hPDE10A2 (Q9Y233 267-1055): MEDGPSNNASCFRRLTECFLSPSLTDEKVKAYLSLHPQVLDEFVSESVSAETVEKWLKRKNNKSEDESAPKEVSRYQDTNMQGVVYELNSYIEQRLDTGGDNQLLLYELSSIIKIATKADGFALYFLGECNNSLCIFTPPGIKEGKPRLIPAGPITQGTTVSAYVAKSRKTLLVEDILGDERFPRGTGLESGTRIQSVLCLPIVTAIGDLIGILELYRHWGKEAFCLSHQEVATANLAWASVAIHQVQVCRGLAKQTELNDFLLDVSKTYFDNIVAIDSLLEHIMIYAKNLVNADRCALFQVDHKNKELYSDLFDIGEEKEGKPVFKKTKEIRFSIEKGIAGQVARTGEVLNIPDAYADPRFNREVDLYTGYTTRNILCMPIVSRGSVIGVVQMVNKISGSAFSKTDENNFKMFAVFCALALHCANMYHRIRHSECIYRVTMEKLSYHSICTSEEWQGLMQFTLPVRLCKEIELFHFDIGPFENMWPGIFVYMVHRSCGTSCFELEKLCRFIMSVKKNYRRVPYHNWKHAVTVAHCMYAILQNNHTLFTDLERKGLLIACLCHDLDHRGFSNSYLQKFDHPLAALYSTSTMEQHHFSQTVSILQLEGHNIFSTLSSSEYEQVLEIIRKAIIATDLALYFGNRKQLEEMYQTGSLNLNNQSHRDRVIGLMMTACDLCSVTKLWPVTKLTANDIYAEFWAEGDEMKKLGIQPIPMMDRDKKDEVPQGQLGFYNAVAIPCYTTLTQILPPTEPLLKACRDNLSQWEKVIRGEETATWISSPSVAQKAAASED

Each structure is given as a SMILES string.

T1 sequence (O00408 whole entry): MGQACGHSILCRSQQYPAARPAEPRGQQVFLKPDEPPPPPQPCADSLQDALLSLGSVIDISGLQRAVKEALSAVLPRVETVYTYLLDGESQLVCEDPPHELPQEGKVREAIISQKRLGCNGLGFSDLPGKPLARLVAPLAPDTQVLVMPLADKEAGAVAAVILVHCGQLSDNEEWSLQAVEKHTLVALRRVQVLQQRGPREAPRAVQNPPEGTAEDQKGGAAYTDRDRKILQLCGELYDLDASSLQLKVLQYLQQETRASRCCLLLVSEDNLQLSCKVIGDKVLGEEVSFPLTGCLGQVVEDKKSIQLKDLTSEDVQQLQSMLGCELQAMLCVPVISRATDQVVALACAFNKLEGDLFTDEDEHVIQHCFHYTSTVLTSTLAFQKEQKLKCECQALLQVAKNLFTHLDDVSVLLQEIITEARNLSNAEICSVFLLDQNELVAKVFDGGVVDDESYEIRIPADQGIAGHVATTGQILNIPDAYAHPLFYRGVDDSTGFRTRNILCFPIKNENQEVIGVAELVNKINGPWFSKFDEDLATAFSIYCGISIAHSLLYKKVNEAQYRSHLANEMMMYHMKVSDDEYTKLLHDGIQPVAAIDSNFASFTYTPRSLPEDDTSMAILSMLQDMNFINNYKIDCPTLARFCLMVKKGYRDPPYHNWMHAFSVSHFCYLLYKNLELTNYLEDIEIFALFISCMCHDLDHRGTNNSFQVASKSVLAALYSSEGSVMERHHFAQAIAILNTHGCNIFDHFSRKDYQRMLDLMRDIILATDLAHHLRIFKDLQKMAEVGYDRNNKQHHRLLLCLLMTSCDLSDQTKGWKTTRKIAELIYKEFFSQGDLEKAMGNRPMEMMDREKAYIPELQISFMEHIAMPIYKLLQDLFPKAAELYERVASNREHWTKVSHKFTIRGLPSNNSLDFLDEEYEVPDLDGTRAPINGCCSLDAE

Broadly, the Emax is the greatest response seen or fitted, relative to the assay's reference. One may read the melting point as the temperature of the solid-liquid transition. Consider `Cc1cc(C(C)N2CC[C@@H](C)[C@H](c3cc(C(F)F)nc4ncnn34)C2)cc(C)n1` (single isomer, unassigned) [Compound 1a, 5-(difluoromethyl)-7-[(3 S,4R)-1-[(1R*)-1-(2,6-dimethyl-4-pyridyl)ethyl]-4-methyl-3-piperidyl]-[1,2,4]triazolo[1,5-a]pyrimidine], for which the melting point is 141.46 °C. Also, in data set [1], the Emax was determined as 99% and the IC50 was 102 nM. Moreover, in data set [2], the “hPDE3B pIC50” value is given as under 5 and the “hPDE3B Emax” value is reported as 34. For the same molecule, in data set [3], the IC50 is 5620 nM and the Emax stood at 64%.

`C[C@@H]1CCN(Cc2cccc(N3CCCCC3)n2)C[C@H]1c1cc(C(F)F)nc2ncnn12` [Compound 17]: the melting point was found to be 137.52 °C. In data set [1], the Emax is 100% and the IC50 was 195 nM. In data set [2], the “hPDE3B pIC50” value is under 5 and the “hPDE3B Emax” value stood at 41. In data set [3], the IC50 was over 10000 nM and the Emax turned out to be 49%.

For the origin of these results see patent US11319321B2, “[1,2,4]triazolo[1,5-a]pyrimidine compounds as PDE2 inhibitors” (Janssen Pharmaceutica NV, priority 2016, dated 2022).
